In PMC4996933, “Shared active site architecture between archaeal PolD and multi-subunit RNA polymerases revealed by X-ray crystallography” (Nature Communications, 2016):

Molecular target: T1, PolD DP1 (144-622), proofreading exonuclease subunit (Pyrococcus abyssi, UniProt Q9V2F3)
T1 construct: gene polB; residues 144-622, flexible N-terminal region removed; N-terminal 14-His tag cut with TEV; E. coli BL21(DE3) Rosetta2; di-metal site Fe3+/Zn2+; two copies in the asymmetric unit
T1 sequence (Q9V2F3 141-619): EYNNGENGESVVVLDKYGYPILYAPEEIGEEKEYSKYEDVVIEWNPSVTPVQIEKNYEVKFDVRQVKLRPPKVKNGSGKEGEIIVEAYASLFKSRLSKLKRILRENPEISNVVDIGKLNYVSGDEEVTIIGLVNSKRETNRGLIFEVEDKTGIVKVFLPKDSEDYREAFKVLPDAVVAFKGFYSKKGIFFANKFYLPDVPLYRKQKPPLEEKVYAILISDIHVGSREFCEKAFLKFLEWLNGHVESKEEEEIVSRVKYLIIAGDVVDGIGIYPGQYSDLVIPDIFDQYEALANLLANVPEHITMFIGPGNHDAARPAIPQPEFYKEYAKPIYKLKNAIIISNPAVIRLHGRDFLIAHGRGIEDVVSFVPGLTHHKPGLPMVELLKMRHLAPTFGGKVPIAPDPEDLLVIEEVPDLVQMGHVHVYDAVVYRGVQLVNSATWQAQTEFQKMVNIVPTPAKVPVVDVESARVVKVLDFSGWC
Test: X-ray crystallography, co-crystallization, […] Å
Assay type: binding
Settings: 5 mM dAMP, pH 6.7, 4 °C; Fe3+/Zn2+ nuclease active site; calcium acetate in crystallization buffer

Nc1ncnc2c1ncn2[C@H]1C[C@H](O)[C@@H](COP(=O)(O)O)O1 [dAMP]
X-ray crystallography, co-crystallization, 2.5 Å: DP1 was co-crystallized together with deoxy-adenosine monophosphate (dAMP)
